Read-outs that look alike come from different tables or passages of the source.

The subject of this test is HBV rcDNA. Briefly: HepDE19 assay with bDNA quantitation of HBV rcDNA. Type of test: cell-based, hepatitis B virus. Summed up:
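HepDE19 cells (HepG2-derived, Tet-regulated HBV replication) were deprived of tetracycline and then exposed to compounds for 7 days at 37 °C in 0.5% DMSO, 8-point titration from 25 μM. rcDNA was quantified by bDNA and EC50/EC90 came from 4-parameter fits. CC50 was measured by CellTiter-Glo ATP content on replicate plates after 4 days.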

Setting [1] is: HepDE19 assay, inhibition of formation of rcDNA, read-out: DE-19bDNA EC50.
Where [2] appears, read: Hepatitis B virus, HepDE19, HepDE19 assay, inhibition of formation of rcDNA, read-out: DE-19bDNA EC50.
Setting [3] is: HepDE19 assay, inhibition of formation of relaxed circular DNA (rcDNA), bDNA quantitation, read-out: DE-19bDNA EC50.
Setting [4] is: read-out: DE-19bDNA EC50, HepDE19 assay, inhibition of formation of rcDNA.
Where [5] appears, read: Hepatitis B virus, HepDE19, read-out: DE-19bDNA EC50 (μM), HepDE19 assay, inhibition of formation of relaxed circular DNA (rcDNA), bDNA quantitation.

With `CC(c1c[nH]c(=O)c2ccccc12)N(CC[C@@H](C)O)C(=O)Nc1ccc(F)c(Cl)c1` (single isomer, unassigned) [Compound 211], the EC50 (as a rule, the concentration that produces a half-maximal response) under setting [1] was 2.7 µM.

Consider `CCCN(C(=O)Nc1ccc(F)c(Cl)c1)[C@H](C)c1c[nH]c(=O)c2ccccc12` [Compound 35, (R)-3-(3-Chloro-4-fluorophenyl)-1-(1-(1-oxo-1,2-dihydroisoquinolin-4-yl)ethyl)-1-propylurea], for which, under setting [2], the EC50 turned out to be 0.01 µM.

Consider `CC(c1c[nH]c(=O)c2c(F)c(F)ccc12)N(C)C(=O)NCc1ccc(F)cc1` (single isomer, unassigned) [Compound 492, 1-(1-(7,8-Difluoro-1-oxo-1,2-dihydroisoquinolin-4-yl)ethyl)-3-(4-fluorobenzyl)-1-methylurea], for which, under setting [3], the EC50 is 0.84 µM.

With `CC(c1cnc(NCCO)c2ccccc12)N(C)C(=O)Nc1ccc(F)c(Cl)c1` (single isomer, unassigned) [Compound 243, 3-(3-Chloro-4-fluorophenyl)-1-(1-(1-((2-hydroxyethyl)amino)isoquinolin-4-yl)ethyl)-1-methylurea], the EC50 under setting [1] is 9.9 µM.

`CC(C)CN(C(=O)Nc1ccc(F)cc1)C(C)c1cn(CC(F)(F)F)c(=O)c2ccccc12` (racemic) [Compound 235, 3-(4-Fluorophenyl)-1-isobutyl-1-(1-(1-oxo-2-(2,2,2-trifluoroethyl)-1,2-dihydroisoquinolin-4-yl)ethyl)urea]: the EC50 under setting [2] was 0.21 µM.

With `CCN(C(=O)Nc1ccc(F)cc1)C(C)c1c[nH]c(=O)c2c(F)c(F)ccc12` (single isomer, unassigned) [Compound 464, 1-(1-(7,8-Difluoro-1-oxo-1,2-dihydroisoquinolin-4-yl)ethyl)-1-ethyl-3-(4-fluorophenyl)urea], the EC50 under setting [3] came out at 2.9 µM.

For `CC(c1cnc(NCc2cn[nH]n2)c2ccccc12)N(C)C(=O)Nc1ccc(F)c(Cl)c1` (single isomer, unassigned) [Compound 262, 1-(1-(1-(((2H-1,2,3-Triazol-4-yl)methyl)amino)isoquinolin-4-yl)ethyl)-3-(3-chloro-4-fluorophenyl)-1-methylurea], the concentration giving a half-maximal response (EC50) under setting [1] was found to be 0.15 µM.

With `CC(c1c[nH]c(=O)c2ccccc12)N(CC(=O)N(C)C)C(=O)Nc1ccc(F)c(Cl)c1` (racemic) [Compound 147, 2-(3-(3-Chloro-4-fluorophenyl)-1-(1-(1-oxo-1,2-dihydroisoquinolin-4-yl)ethyl)ureido)-N,N-dimethylacetamide], under setting [2], the EC50 is 0.84 µM.

As to `COc1ncc(CNC(=O)Nc2ccc(F)c(C)c2)c2ccccc12` [Compound 7, 1-(4-Fluoro-3-methylphenyl)-3-((1-methoxyisoquinolin-4-yl)methyl)urea], the EC50 under setting [2] is 12 µM.

Regarding `CCOCCN(C(=O)Nc1ccc(F)c(Cl)c1)C(C)c1cnc(OC)c2ccccc12` (single isomer, unassigned) [Compound 125, 3-(3-Chloro-4-fluorophenyl)-1-(2-ethoxyethyl)-1-(1-(1-methoxyisoquinolin-4-yl)ethyl)urea], under setting [1], the EC50 is 20 µM.

`O=C(NCc1c[nH]c(=O)c2ccccc12)Nc1ccc(F)c(Cl)c1` [Compound 8, 1-(3-Chloro-4-fluorophenyl)-3-((1-oxo-1,2-dihydroisoquinolin-4-yl)methyl)urea]: the EC50 under setting [2] was determined as 6.8 µM.

Consider `CC(c1c[nH]c(=O)c2ccccc12)N(CCCO)C(=O)Nc1ccc(F)c(Cl)c1` (single isomer, unassigned) [Compound 131, 3-(3-Chloro-4-fluorophenyl)-1-(3-hydroxypropyl)-1-(1-(1-oxo-1,2-dihydroisoquinolin-4-yl)ethyl)urea], for which the EC50 under setting [4] came to 0.01 µM.

For `CCC(c1c[nH]c(=O)c2ccccc12)N(CC)C(=O)Nc1ccc(F)c(Cl)c1` (single isomer, unassigned) [Compound 39, 3-(3-Chloro-4-fluorophenyl)-1-ethyl-1-(1-(1-oxo-1,2-dihydroisoquinolin-4-yl)propyl)urea], the EC50 under setting [4] turned out to be 14 µM.

On to `CC(c1c[nH]c(=O)c2cc(F)ccc12)N(C)C(=O)Nc1ccc(F)cc1` (racemic) [Compound 258, 3-(4-Fluorophenyl)-1-(1-(7-fluoro-1-oxo-1,2-dihydroisoquinolin-4-yl)ethyl)-1-methylurea], for which, under setting [2], the 50% effective concentration (EC50) stood at 0.15 µM.

Regarding `COc1ncc(CN(C(=O)Nc2ccc(F)c(Cl)c2)C2CC2)c2ccccc12` [Compound 34, 3-(3-Chloro-4-fluorophenyl)-1-cyclopropyl-1-((1-methoxyisoquinolin-4-yl)methyl)urea], the EC50 under setting [2] came out at 3.7 µM.

For the molecule `CCN(C(=O)Nc1ccc(F)c(Cl)c1)C(C)c1c[nH]c(=O)c2ccccc12` (single isomer, unassigned) [Compound 24, 3-(3-Chloro-4-fluorophenyl)-1-ethyl-1-(1-(1-oxo-1,2-dihydroisoquinolin-4-yl)ethyl)urea], under setting [1], the half-maximal effective concentration (EC50) worked out at 3.2 µM.

Take `CC(c1c[nH]c(=O)c2cc(F)c(F)cc12)N(C)C(=O)Nc1ccc(F)c(C(F)F)c1` (single isomer, unassigned) [Compound 501, 1-(1-(6,7-Difluoro-1-oxo-1,2-dihydroisoquinolin-4-yl)ethyl)-3-(3-(difluoromethyl)-4-fluorophenyl)-1-methylurea]: the EC50 under setting [3] worked out at 0.73 µM.

With `COc1ccc2c(=O)[nH]cc(C(C)N(C)C(=O)Nc3ccc(F)c(Cl)c3)c2c1` (single isomer, unassigned) [Compound 179, 3-(3-Chloro-4-fluorophenyl)-1-(1-(6-methoxy-1-oxo-1,2-dihydroisoquinolin-4-yl)ethyl)-1-methylurea], the EC50 under setting [1] was determined as 7.3 µM.

With `CCCN(Cc1cnc(OC)c2ccccc12)C(=O)Nc1ccc(F)c(Cl)c1` [Compound 20, 3-(3-Chloro-4-fluorophenyl)-1-((1-methoxyisoquinolin-4-yl)methyl)-1-propylurea], the EC50 under setting [2] came out at 0.44 µM.

As to `CC(c1cnc(C#N)c2ccccc12)N(C)C(=O)Nc1ccc(F)c(Cl)c1` (single isomer, unassigned) [Compound 336, 3-(3-Chloro-4-fluorophenyl)-1-(1-(1-cyanoisoquinolin-4-yl)ethyl)-1-methylurea], under setting [3], the EC50 was 19 µM.

Consider `CC(c1cn(Cc2nc[nH]n2)c(=O)c2ccccc12)N(C)C(=O)Nc1ccc(F)c(Cl)c1` (single isomer, unassigned) [Compound 270, 1-(1-(2-((1H-1,2,4-Triazol-3-yl)methyl)-1-oxo-1,2-dihydroisoquinolin-4-yl)ethyl)-3-(3-chloro-4-fluorophenyl)-1-methylurea], for which, under setting [1], the EC50 came to 22 µM.

Turning to `[2H]C([2H])([2H])N(C(=O)Nc1ccc(F)c(Cl)c1)C(C)c1c[nH]c(=O)c2cc(F)c(F)cc12` (single isomer, unassigned) [Compound 472, 3-(3-Chloro-4-fluorophenyl)-1-(1-(6,7-difluoro-1-oxo-1,2-dihydroisoquinolin-4-yl)ethyl)-1-(methyl-d3)urea], the half-maximal effective concentration (EC50) under setting [5] is 0.007 µM.

Take `CC(NC(=O)Nc1ccc(F)c(Cl)c1)c1c[nH]c(=O)c2c(F)c(F)ccc12` (single isomer, unassigned) [Compound 500, 1-(3-Chloro-4-fluorophenyl)-3-(1-(7,8-difluoro-1-oxo-1,2-dihydroisoquinolin-4-yl)ethyl)urea]: under setting [5], the 50% effective concentration (EC50) came to 3 µM.

With `C[C@H](c1c[nH]c(=O)c2ccccc12)N(CC(F)F)C(=O)Nc1ccc(F)c(Cl)c1` [Compound 96, (R)-3-(3-Chloro-4-fluorophenyl)-1-(2,2-difluoroethyl)-1-(1-(1-oxo-1,2-dihydroisoquinolin-4-yl)ethyl)urea], under setting [2], the EC50 was 0.22 µM.

These data come from patent US20230045421A1 (priority 2018, published 2023).
